Laboratory results published in patent US4605642A, “CRF antagonists” (The Salk Institute for Biological Studies, priority 1984, dated 1986).
Square brackets hold non-standard residues; d marks the D form. Peptide text beside a SMILES is read from it. Nle = CCCC[C@H](N)C(=O)O

Assays:
[1] = system: secretion of ACTH by cultured rat pituitary cells; experiment: Blocking of oCRF-stimulated ACTH secretion by cultured rat pituitary cells; type: cell-based; details: general procedure set forth in Example III
Procedure: (§1) The effectiveness of synthetic CRF antagonists to block the secretion of ACTH and β-endorphin by cultured rat pituitary cells is measured using the procedure as generally set forth in Vale et al., Endocrinology, 91, 562 (1972). In vivo testing is carried out using the general procedure set forth in C. Rivier et al., Science, 218, 377 (1982).

[2] = system: secretion of β-endorphin by cultured rat pituitary cells; experiment: Blocking of β-endorphin (β-END-LI) secretion by cultured rat pituitary cells; type: cell-based; details: general procedure set forth in Example III
Procedure: as §1

Compound	inhibition of the secretion of ACTH (in words) [1]	inhibition of the secretion of β-END-LI (in words) [2]
CCCC[C@H](NC(=O)[C@@H](NC(=O)[C@H](CCC(=O)O)NC(=O)[C@H](CC(C)C)NC(=O)[C@H](CC(C)C)NC(=O)[C@H](CCCCN)NC(=O)[C@H](CCCNC(=N)N)NC(=O)[C@H](CC(N)=O)NC(=O)[C@H](CO)NC(=O)[C@H](Cc1c[nH]cn1)NC(=O)[C@H](C)NC(=O)[C@H](CCC(N)=O)NC(=O)[C@H](CCC(N)=O)NC(=O)[C@H](C)NC(=O)[C@H](CC(C)C)NC(=O)[C@H](CCC(N)=O)NC(=O)[C@H](CCC(=O)O)NC(=O)[C@H](C)NC(=O)[C@H](CCCNC(=N)N)NC(=O)[C@H](C)NC(=O)[C@H](C)NC(=O)[C@H](CCC(=O)O)NC(=O)[C@H](CC(C)C)NC(=O)[C@@H](NC(=O)[C@H](CCC(=O)O)NC(=O)[C@H](CCCNC(=N)N)NC(=O)[C@H](CC(C)C)NC(=O)[C@H](CC(C)C)NC(=O)[C@H](Cc1c[nH]cn1)NC(=O)[C@H](Cc1ccccc1)NC(=O)[C@@H](NC(=O)[C@H](CC(C)C)NC(=O)[C@@H](N)CC(=O)O)[C@@H](C)O)C(C)C)[C@@H](C)CC)C(N)=O [[Ala^21, Leu^38, Nle^41]-hCRF(9-41)] (H-DLTFHLLREVLEAARAEQLAQQAHSNRKLLEI[Nle]-NH2)	inhibits the secretion	inhibits the secretion
CCCC[C@H](N)C(=O)N[C@@H](CC(=O)O)C(=O)N[C@@H](CC(C)C)C(=O)N[C@@H](CO)C(=O)N[C@@H](Cc1ccccc1)C(=O)N[C@@H](Cc1c[nH]cn1)C(=O)N[C@@H](CC(C)C)C(=O)N[C@@H](CC(C)C)C(=O)N[C@@H](CCCNC(=N)N)C(=O)N[C@@H](CCC(=O)O)C(=O)N[C@H](C(=O)N[C@@H](CC(C)C)C(=O)N[C@@H](CCC(=O)O)C(=O)N[C@@H](CCSC)C(=O)N[C@@H](C)C(=O)N[C@@H](CCCNC(=N)N)C(=O)N[C@@H](C)C(=O)N[C@@H](CCC(=O)O)C(=O)N[C@@H](CCC(N)=O)C(=O)N[C@@H](CC(C)C)C(=O)N[C@@H](C)C(=O)N[C@@H](CCC(N)=O)C(=O)N[C@@H](CCC(N)=O)C(=O)N[C@@H](C)C(=O)N[C@@H](Cc1c[nH]cn1)C(=O)N[C@@H](CC(C)C)C(=O)N[C@@H](CC(N)=O)C(=O)N[C@@H](CCCNC(=N)N)C(=O)N[C@@H](CCCCN)C(=O)N[C@@H](CC(C)C)C(=O)N[C@@H](CCSC)C(=O)N[C@@H](CCC(=O)O)C(=O)N[C@H](C(=O)N[C@H](C(N)=O)[C@@H](C)CC)[C@@H](C)CC)C(C)C [[Nle^8, Ser^11, Leu^33]-hCRF(8-41)] (H-[Nle]DLSFHLLREVLEMARAEQLAQQAHLNRKLMEII-NH2)	inhibits the secretion	inhibits the secretion
CCCC[C@H](NC(=O)[C@@H](NC(=O)[C@@H](N)CC(C)C)[C@@H](C)O)C(=O)N[C@@H](Cc1c[nH]cn1)C(=O)N[C@@H](CC(C)C)C(=O)N[C@@H](CC(C)C)C(=O)N[C@@H](CCCNC(=N)N)C(=O)N[C@@H](CCC(=O)O)C(=O)N[C@H](C(=O)N[C@@H](CC(C)C)C(=O)N[C@@H](CCC(=O)O)C(=O)N[C@@H](CCSC)C(=O)N[C@@H](C)C(=O)N[C@@H](CCCNC(=N)N)C(=O)N[C@@H](C)C(=O)N[C@@H](CCC(=O)O)C(=O)N[C@@H](CCC(N)=O)C(=O)N[C@@H](CC(C)C)C(=O)N[C@@H](C)C(=O)N[C@@H](CCC(N)=O)C(=O)N[C@@H](CCC(N)=O)C(=O)N[C@@H](C)C(=O)N[C@@H](Cc1c[nH]cn1)C(=O)N[C@@H](CO)C(=O)N[C@@H](CC(N)=O)C(=O)N[C@@H](CCCNC(=N)N)C(=O)N[C@@H](CCCCN)C(=O)N[C@@H](CC(C)C)C(=O)N[C@@H](CCSC)C(=O)N[C@@H](CCC(=O)O)C(=O)N[C@H](C(=O)N[C@H](C(N)=O)[C@@H](C)CC)[C@@H](C)CC)C(C)C [[Nle^12]-hCRF(10-41)] (H-LT[Nle]HLLREVLEMARAEQLAQQAHSNRKLMEII-NH2)	inhibits the secretion	inhibits the secretion
CCCC[C@H](NC(=O)[C@H](CCC(=O)O)NC(=O)[C@H](CC(C)C)NC(=O)[C@H](CCCC)NC(=O)[C@H](CCC(=O)O)NC(=O)[C@H](CCCNC(=N)N)NC(=O)[C@H](CC(C)C)NC(=O)[C@H](CC(C)C)NC(=O)[C@H](Cc1c[nH]cn1)NC(=O)[C@H](Cc1ccccc1)NC(=O)[C@@H](NC(=O)[C@H](CC(C)C)NC(=O)[C@H](CC(=O)O)NC(=O)[C@@H](N)CC(C)C)[C@@H](C)O)C(=O)N[C@@H](C)C(=O)N[C@@H](CCCCN)C(=O)N[C@@H](C)C(=O)N[C@@H](CCC(=O)O)C(=O)N[C@@H](CCC(N)=O)C(=O)N[C@@H](CCC(=O)O)C(=O)N[C@@H](C)C(=O)N[C@@H](CCC(=O)O)C(=O)N[C@@H](CCC(N)=O)C(=O)N[C@@H](C)C(=O)N[C@@H](C)C(=O)N[C@@H](CC(C)C)C(=O)N[C@@H](CC(N)=O)C(=O)N[C@@H](CCCNC(=N)N)C(=O)N[C@@H](CC(C)C)C(=O)N[C@@H](CC(C)C)C(=O)N[C@@H](CC(C)C)C(=O)N[C@@H](CCC(=O)O)C(=O)N[C@@H](CCC(=O)O)C(=O)N[C@@H](C)C(N)=O [[Nle^18,21]-AHC(8-41)] (H-LDLTFHLLRE[Nle]LE[Nle]AKAEQEAEQAALNRLLLEEA-NH2)	inhibits the secretion	inhibits the secretion
CCCC[C@H](NC(=O)[C@H](CCC(=O)O)NC(=O)[C@H](CC(C)C)NC(=O)[C@H](CCCC)NC(=O)[C@H](CCC(=O)O)NC(=O)[C@H](CCCNC(=N)N)NC(=O)[C@H](CC(C)C)NC(=O)[C@H](CC(C)C)NC(=O)[C@H](Cc1c[nH]cn1)NC(=O)[C@H](Cc1ccccc1)NC(=O)[C@@H](NC(=O)[C@H](CC(C)C)NC(=O)[C@@H](N)CC(=O)O)[C@@H](C)O)C(=O)N[C@@H](C)C(=O)N[C@@H](CCCCN)C(=O)N[C@@H](C)C(=O)N[C@@H](CCC(=O)O)C(=O)N[C@@H](CCC(N)=O)C(=O)N[C@@H](CCC(=O)O)C(=O)N[C@@H](C)C(=O)N[C@@H](CCC(=O)O)C(=O)N[C@@H](CCC(N)=O)C(=O)N[C@@H](C)C(=O)N[C@@H](C)C(=O)N[C@@H](CC(C)C)C(=O)N[C@@H](CC(N)=O)C(=O)N[C@@H](CCCNC(=N)N)C(=O)N[C@@H](CC(C)C)C(=O)N[C@@H](CC(C)C)C(=O)N[C@@H](CC(C)C)C(=O)N[C@@H](CCC(=O)O)C(=O)N[C@@H](CCC(=O)O)C(=O)N[C@@H](C)C(N)=O [[Nle^18,21]-AHC(9-41)] (H-DLTFHLLRE[Nle]LE[Nle]AKAEQEAEQAALNRLLLEEA-NH2)	inhibits the secretion	inhibits the secretion
CCCC[C@H](NC(=O)[C@H](CCC(=O)O)NC(=O)[C@H](CC(C)C)NC(=O)[C@H](CCCC)NC(=O)[C@H](CCC(=O)O)NC(=O)[C@H](CCCNC(=N)N)NC(=O)[C@H](CC(C)C)NC(=O)[C@H](CC(C)C)NC(=O)[C@H](Cc1c[nH]cn1)NC(=O)[C@H](Cc1ccccc1)NC(=O)[C@@H](NC(=O)[C@@H](N)CC(C)C)[C@@H](C)O)C(=O)N[C@@H](C)C(=O)N[C@@H](CCCCN)C(=O)N[C@@H](C)C(=O)N[C@@H](CCC(=O)O)C(=O)N[C@@H](CCC(N)=O)C(=O)N[C@@H](CCC(=O)O)C(=O)N[C@@H](C)C(=O)N[C@@H](CCC(=O)O)C(=O)N[C@@H](CCC(N)=O)C(=O)N[C@@H](C)C(=O)N[C@@H](C)C(=O)N[C@@H](CC(C)C)C(=O)N[C@@H](CC(N)=O)C(=O)N[C@@H](CCCNC(=N)N)C(=O)N[C@@H](CC(C)C)C(=O)N[C@@H](CC(C)C)C(=O)N[C@@H](CC(C)C)C(=O)N[C@@H](CCC(=O)O)C(=O)N[C@@H](CCC(=O)O)C(=O)N[C@@H](C)C(N)=O [[Nle^18,21]-AHC(10-41)] (H-LTFHLLRE[Nle]LE[Nle]AKAEQEAEQAALNRLLLEEA-NH2)	inhibits the secretion	inhibits the secretion
CCCC[C@H](NC(=O)[C@H](CCC(=O)O)NC(=O)[C@H](CC(C)C)NC(=O)[C@@H](NC(=O)[C@H](CCC(=O)O)NC(=O)[C@H](CCCNC(=N)N)NC(=O)[C@H](CC(C)C)NC(=O)[C@H](CC(C)C)NC(=O)[C@H](Cc1c[nH]cn1)NC(=O)[C@H](Cc1ccccc1)NC(=O)[C@@H](NC(=O)[C@H](CC(C)C)NC(=O)[C@@H](N)CC(=O)O)[C@@H](C)O)C(C)C)C(=O)N[C@@H](C)C(=O)N[C@@H](CCCNC(=N)N)C(=O)N[C@@H](C)C(=O)N[C@@H](CCC(=O)O)C(=O)N[C@@H](CCC(N)=O)C(=O)N[C@@H](CC(C)C)C(=O)N[C@@H](C)C(=O)N[C@@H](CCC(N)=O)C(=O)N[C@@H](CCC(N)=O)C(=O)N[C@@H](C)C(=O)N[C@@H](Cc1ccc(O)cc1)C(=O)N[C@@H](CO)C(=O)N[C@@H](CC(N)=O)C(=O)N[C@@H](CCCNC(=N)N)C(=O)N[C@@H](CCCCN)C(=O)N[C@@H](CC(C)C)C(=O)N[C@@H](CCSC)C(=O)N[C@@H](CCC(=O)O)C(=O)N[C@H](C(=O)N[C@H](C(N)=O)[C@@H](C)CC)[C@@H](C)CC [[Nle^21, Tyr^32]-hCRF(9-41)] (H-DLTFHLLREVLE[Nle]ARAEQLAQQAYSNRKLMEII-NH2)	inhibits the secretion	inhibits the secretion
Ac-DLTFHLLREVLEMARAEQLAQQAHSNRKLMDII-NH2 [[Acetyl-Asp^9, Asp^39]-hCRF(9-41)]	inhibits the secretion	inhibits the secretion
H-Asp-CML-Thr-Leu-Glu-CML-CML-Arg-Glu-Met-CML-Glu-Met-CMA-Lys-Ala-Glu-Gln- CML-Ala-Glu-Gln-Ala-CMA-CML-Asn-Arg-Leu-CML-Leu-Glu-Glu-CMA-NH2	inhibits the secretion	inhibits the secretion
H-DLSLELLRKMIEIAKQEKEKQQAANNRLLMDTI-NH2 [[Ala^21, Met^37]-sauvagine(8-40)]	inhibits the secretion	inhibits the secretion
H-DLSLELLRKMIEIEKQEKLKQQAANNRLLMDTI-NH2 [[Leu^26, Met^37]-sauvagine(8-40)]	inhibits the secretion	inhibits the secretion
H-DLTFALLREMLEMAKAEQEAEQAALNRLLLEEA-NH2 [[Ala^13]-AHC(9-41)]	inhibits the secretion	inhibits the secretion
